Columns and labels:
Format in all cases: cell-based
Botrytis cinerea [1] = test: Color change response at varied vinclozolin concentration (Example 4); parameters: key: T = only slight color change; conditions: pH 5.5, about 48 hours
Protocol: Diagnostic media was prepared substantially as described above in Preparation Example 1 and the pH adjusted to 5.5 except that the vinclozolin concentrations in the media varied from about 10 ppm to 1000 ppm. The media was inoculated with 1 vinclozolin sensitive (BC-A) and 1 vinclozolin resistant isolate (BC-4) of Botrytis cinerea) and incubated at room temperature for about 48 hours.

Botrytis cinerea [2] = test: Microscopic spore germination on the Example 3 plates; conditions: microscopically examined
Protocol: Resistant and sensitive fungi were initially obtained from crops of cultivated fruit in the field. The percent germination reported below was calculated by microscopic evaluation. An average of four fields of view per plate was examined with each field of view having a total of about 100 to 300 spores. The total number of spores in each field of view was counted then either the number germinated or not germinated, whichever was easiest to count, was determined. These numbers were then combined appropriately and the percent germination calculated. Unless otherwise noted, resistant isolates are given a numerical designation and sensitive isolates a letter designation.
(§1) Diagnostic media was prepared substantially as described above in Preparation Example 1 except that bromothymol blue rather than bromcresol purple and only 4 g of dextrose was used per liter and the pH adjusted to 7.5, 8.0 and 8.5. These media were then inoculated with spores of either Botrytis cinerea or Rhizopus nigricans isolates substantially as previously described. The inoculated media was then incubated for 18 hours at room temperature and the results recorded below in Table III.
Strong color reactions were only observed from the resistant Botrytis cinerea isolates. Only slight reactions, at most, occurred from the Rhizopus nigricans inoculations. Example 4

Rhizopus nigricans [3] = test: Color change diameter on bromcresol purple media containing vinclozolin (Example 2); parameters: key to COLOR CHANGE DIAMETER: T = only slight color change; conditions: for COLOR CHANGE DIAMETER: 20 hours
Protocol: (§2) To a stock solution of 0.4 g bromcresol purple in 260 mls of 0.01N sodium hydroxide, either 40 g of potato dextrose agar (PDA) or 40 g dextrose and 20 g agar (WA-dextrose medium) were added and the total volume brought up to 1 liter using distilled water. After autoclaving the media, a solution of vinclozolin in 5 mls of ethanol was added to afford 5 or 10 ppm concentrations and dispensed into petri plates (10 ml/plate). Sporulating cultures of Botrytis cinerea and Rhizopus nigricans (also known as Rhizopus stolonifer) were grown for two weeks on potato dextrose agar. Spores were transferred to the diagnostic media using sterile cotton tipped swabs and incubated for 20 hours at room temperature. The media was macroscopically examined and the diameter of color change detectable in the media was then measured.

Botrytis cinerea [4] = test: as above; parameters: key to COLOR CHANGE DIAMETER: T = only slight color change; conditions: for COLOR CHANGE DIAMETER: 20 hours
Protocol: as §2

Botrytis cinerea [5] = test: as above; conditions: resistant isolates of Botrytis cinerea only; water dextrose media; after 4 days
Rhizopus nigricans [6] = test: Color change diameter on bromothymol blue diagnostic media at pH 7.5-8.5 (Example 3); parameters: key: T = only slight color change
Protocol: as §1

Botrytis cinerea [7] = test: as above; parameters: key: T = only slight color change
Protocol: as §1

SMILES: C=CC1(C)OC(=O)N(c2cc(Cl)cc(Cl)c2)C1=O (stereo not shown) [vinclozolin]
- Color Change Response (Botrytis cinerea [1]; isolate BC-4 (vinclozolin resistant), vinclozolin 500 ppm): T
- Color Change Response (Botrytis cinerea [1]; isolate BC-4 (vinclozolin resistant), vinclozolin 1000 ppm): T
- Color Change Response (Botrytis cinerea [1]; isolate BC-A (vinclozolin sensitive), vinclozolin 1000 ppm): T
- spore germination (Botrytis cinerea [2]; all of the resistant isolates): greater than 90%
- spore germination (Botrytis cinerea [2]; sensitive isolate spores): no germination
- color reaction (Rhizopus nigricans [3]; Rhizopus nigricans isolates, PDA media containing 5 ppm of vinclozolin, after 4 days): allowed 1 of the Rhizopus nigricans contaminated isolates to react
- COLOR CHANGE DIAMETER (Rhizopus nigricans [3]; isolate RP-1, PDA media, vinclozolin 5.0ppm): T
- COLOR CHANGE DIAMETER (Rhizopus nigricans [3]; isolate RP-1, PDA media, vinclozolin 10.0ppm): 0 mm
- COLOR CHANGE DIAMETER (Rhizopus nigricans [3]; isolate RP-1, WA-dextrose media, vinclozolin 5.0ppm): 0 mm
- COLOR CHANGE DIAMETER (Rhizopus nigricans [3]; isolate RP-1, WA-dextrose media, vinclozolin 10.0ppm): 0 mm
- COLOR CHANGE DIAMETER (Rhizopus nigricans [3]; isolate RP-2, PDA media, vinclozolin 5.0ppm): T
- COLOR CHANGE DIAMETER (Rhizopus nigricans [3]; isolate RP-2, PDA media, vinclozolin 10.0ppm): 0 mm
- COLOR CHANGE DIAMETER (Rhizopus nigricans [3]; isolate RP-2, WA-dextrose media, vinclozolin 5.0ppm): 0 mm
- COLOR CHANGE DIAMETER (Rhizopus nigricans [3]; isolate RP-2, WA-dextrose media, vinclozolin 10.0ppm): 0 mm
- COLOR CHANGE DIAMETER (Botrytis cinerea [4]; isolate BC-1 res., PDA media, vinclozolin 5.0ppm): 5 mm
- COLOR CHANGE DIAMETER (Botrytis cinerea [4]; isolate BC-1 res., PDA media, vinclozolin 10.0ppm): 0 mm
- COLOR CHANGE DIAMETER (Botrytis cinerea [4]; isolate BC-1 res., WA-dextrose media, vinclozolin 5.0ppm): T^a
- COLOR CHANGE DIAMETER (Botrytis cinerea [4]; isolate BC-1 res., WA-dextrose media, vinclozolin 10.0ppm): 5 mm
- COLOR CHANGE DIAMETER (Botrytis cinerea [4]; isolate BC-2 res., PDA media, vinclozolin 5.0ppm): 10 mm
- COLOR CHANGE DIAMETER (Botrytis cinerea [4]; isolate BC-2 res., PDA media, vinclozolin 10.0ppm): 0 mm
- COLOR CHANGE DIAMETER (Botrytis cinerea [4]; isolate BC-2 res., WA-dextrose media, vinclozolin 5.0ppm): 10 mm
- COLOR CHANGE DIAMETER (Botrytis cinerea [4]; isolate BC-2 res., WA-dextrose media, vinclozolin 10.0ppm): 5 mm
- COLOR CHANGE DIAMETER (Botrytis cinerea [4]; isolate BC-3 resistant, PDA media, vinclozolin 5.0ppm): 10 mm
- COLOR CHANGE DIAMETER (Botrytis cinerea [4]; isolate BC-3 resistant, PDA media, vinclozolin 10.0ppm): 0 mm
- COLOR CHANGE DIAMETER (Botrytis cinerea [4]; isolate BC-3 resistant, WA-dextrose media, vinclozolin 5.0ppm): 10 mm
- COLOR CHANGE DIAMETER (Botrytis cinerea [4]; isolate BC-3 resistant, WA-dextrose media, vinclozolin 10.0ppm): 10 mm
- COLOR CHANGE DIAMETER (Botrytis cinerea [4]; isolate BC-A sensitive, PDA media, vinclozolin 5.0ppm): 0 mm
- COLOR CHANGE DIAMETER (Botrytis cinerea [4]; isolate BC-A sensitive, PDA media, vinclozolin 10.0ppm): 0 mm
- COLOR CHANGE DIAMETER (Botrytis cinerea [4]; isolate BC-A sensitive, WA-dextrose media, vinclozolin 5.0ppm): 0 mm
- COLOR CHANGE DIAMETER (Botrytis cinerea [4]; isolate BC-A sensitive, WA-dextrose media, vinclozolin 10.0ppm): 0 mm
- COLOR CHANGE DIAMETER (Botrytis cinerea [4]; isolate BC-B sens., PDA media, vinclozolin 5.0ppm): 0 mm
- COLOR CHANGE DIAMETER (Botrytis cinerea [4]; isolate BC-B sens., PDA media, vinclozolin 10.0ppm): 0 mm
- COLOR CHANGE DIAMETER (Botrytis cinerea [4]; isolate BC-B sens., WA-dextrose media, vinclozolin 5.0ppm): 0 mm
- COLOR CHANGE DIAMETER (Botrytis cinerea [4]; isolate BC-B sens., WA-dextrose media, vinclozolin 10.0ppm): 0 mm
- COLOR CHANGE DIAMETER (Botrytis cinerea [4]; isolate BC-D sens., PDA media, vinclozolin 5.0ppm): 0 mm
- COLOR CHANGE DIAMETER (Botrytis cinerea [4]; isolate BC-D sens., PDA media, vinclozolin 10.0ppm): 0 mm
- COLOR CHANGE DIAMETER (Botrytis cinerea [4]; isolate BC-D sens., WA-dextrose media, vinclozolin 5.0ppm): 0 mm
- COLOR CHANGE DIAMETER (Botrytis cinerea [4]; isolate BC-D sens., WA-dextrose media, vinclozolin 10.0ppm): 0 mm
- color change (Botrytis cinerea [4]; resistant isolates, PDA media containing 10 ppm of vinclozolin, after 4 days): no measurable color change
- diameter color reaction (Botrytis cinerea [5]): 25 mm
- DIAMETER OF COLOR CHANGE (Rhizopus nigricans [6]; isolate RP-3, pH 7.5, 18 hours): T
- DIAMETER OF COLOR CHANGE (Rhizopus nigricans [6]; isolate RP-3, pH 8.0, 18 hours): T
- DIAMETER OF COLOR CHANGE (Rhizopus nigricans [6]; isolate RP-3, pH 8.5, 18 hours): T
- DIAMETER OF COLOR CHANGE (Rhizopus nigricans [6]; isolate RP-4, pH 7.5, 18 hours): T
- DIAMETER OF COLOR CHANGE (Rhizopus nigricans [6]; isolate RP-4, pH 8.0, 18 hours): T
- DIAMETER OF COLOR CHANGE (Rhizopus nigricans [6]; isolate RP-4, pH 8.5, 18 hours): T
- DIAMETER OF COLOR CHANGE (Botrytis cinerea [7]; isolate BC B sens., pH 7.5, 18 hours): 0 mm
- DIAMETER OF COLOR CHANGE (Botrytis cinerea [7]; isolate BC B sens., pH 8.0, 18 hours): 0 mm
- DIAMETER OF COLOR CHANGE (Botrytis cinerea [7]; isolate BC B sens., pH 8.5, 18 hours): 0 mm
- DIAMETER OF COLOR CHANGE (Botrytis cinerea [7]; isolate BC-1 res., pH 7.5, 18 hours): 12 mm
- DIAMETER OF COLOR CHANGE (Botrytis cinerea [7]; isolate BC-1 res., pH 8.0, 18 hours): 6 mm
- DIAMETER OF COLOR CHANGE (Botrytis cinerea [7]; isolate BC-1 res., pH 8.5, 18 hours): 0 mm
- DIAMETER OF COLOR CHANGE (Botrytis cinerea [7]; isolate BC-2 res., pH 7.5, 18 hours): 12 mm
- DIAMETER OF COLOR CHANGE (Botrytis cinerea [7]; isolate BC-2 res., pH 8.0, 18 hours): 6 mm
- DIAMETER OF COLOR CHANGE (Botrytis cinerea [7]; isolate BC-2 res., pH 8.5, 18 hours): T
- DIAMETER OF COLOR CHANGE (Botrytis cinerea [7]; isolate BC-3 res., pH 7.5, 18 hours): 18 mm
- DIAMETER OF COLOR CHANGE (Botrytis cinerea [7]; isolate BC-3 res., pH 8.0, 18 hours): 12 mm
- DIAMETER OF COLOR CHANGE (Botrytis cinerea [7]; isolate BC-3 res., pH 8.5, 18 hours): 12 mm
- DIAMETER OF COLOR CHANGE (Botrytis cinerea [7]; isolate BC-4 res., pH 7.5, 18 hours): 12 mm
- DIAMETER OF COLOR CHANGE (Botrytis cinerea [7]; isolate BC-4 res., pH 8.0, 18 hours): 12 mm
- DIAMETER OF COLOR CHANGE (Botrytis cinerea [7]; isolate BC-4 res., pH 8.5, 18 hours): 12 mm
- DIAMETER OF COLOR CHANGE (Botrytis cinerea [7]; isolate BC-5 res., pH 7.5, 18 hours): 6 mm
- DIAMETER OF COLOR CHANGE (Botrytis cinerea [7]; isolate BC-5 res., pH 8.0, 18 hours): 3 mm
- DIAMETER OF COLOR CHANGE (Botrytis cinerea [7]; isolate BC-5 res., pH 8.5, 18 hours): 6 mm
- DIAMETER OF COLOR CHANGE (Botrytis cinerea [7]; isolate BC-6 resistant, pH 7.5, 18 hours): 6 mm
- DIAMETER OF COLOR CHANGE (Botrytis cinerea [7]; isolate BC-6 resistant, pH 8.0, 18 hours): 3 mm
- DIAMETER OF COLOR CHANGE (Botrytis cinerea [7]; isolate BC-6 resistant, pH 8.5, 18 hours): 6 mm
- DIAMETER OF COLOR CHANGE (Botrytis cinerea [7]; isolate BC-A sensitive, pH 7.5, 18 hours): 0 mm
- DIAMETER OF COLOR CHANGE (Botrytis cinerea [7]; isolate BC-A sensitive, pH 8.0, 18 hours): 0 mm
- DIAMETER OF COLOR CHANGE (Botrytis cinerea [7]; isolate BC-A sensitive, pH 8.5, 18 hours): 0 mm
- DIAMETER OF COLOR CHANGE (Botrytis cinerea [7]; isolate BC-C sens., pH 7.5, 18 hours): T
- DIAMETER OF COLOR CHANGE (Botrytis cinerea [7]; isolate BC-C sens., pH 8.0, 18 hours): 0 mm
- DIAMETER OF COLOR CHANGE (Botrytis cinerea [7]; isolate BC-C sens., pH 8.5, 18 hours): 0 mm
- DIAMETER OF COLOR CHANGE (Botrytis cinerea [7]; isolate BC-D sens., pH 7.5, 18 hours): T
- DIAMETER OF COLOR CHANGE (Botrytis cinerea [7]; isolate BC-D sens., pH 8.0, 18 hours): 0 mm
- DIAMETER OF COLOR CHANGE (Botrytis cinerea [7]; isolate BC-D sens., pH 8.5, 18 hours): 0 mm

— patent EP0373543A2, “Diagnostic media and assay for detecting fungicide resistance” (BASF Corporation, priority 1988, dated 1990)
